Positions of bridges follow the written chain, without caps; N, C: chain ends. Residues, ends and D or L forms follow the SMILES beside them.
Experiments:
MMP2 = target: T1, MMP2 (Homo sapiens, UniProt P08253); experiment: MMPs inhibition assay (FRET substrate), MMP2; assay type: biochemical
T1 construct: purchased Sigma-Aldrich
T1 sequence (P08253 110-660): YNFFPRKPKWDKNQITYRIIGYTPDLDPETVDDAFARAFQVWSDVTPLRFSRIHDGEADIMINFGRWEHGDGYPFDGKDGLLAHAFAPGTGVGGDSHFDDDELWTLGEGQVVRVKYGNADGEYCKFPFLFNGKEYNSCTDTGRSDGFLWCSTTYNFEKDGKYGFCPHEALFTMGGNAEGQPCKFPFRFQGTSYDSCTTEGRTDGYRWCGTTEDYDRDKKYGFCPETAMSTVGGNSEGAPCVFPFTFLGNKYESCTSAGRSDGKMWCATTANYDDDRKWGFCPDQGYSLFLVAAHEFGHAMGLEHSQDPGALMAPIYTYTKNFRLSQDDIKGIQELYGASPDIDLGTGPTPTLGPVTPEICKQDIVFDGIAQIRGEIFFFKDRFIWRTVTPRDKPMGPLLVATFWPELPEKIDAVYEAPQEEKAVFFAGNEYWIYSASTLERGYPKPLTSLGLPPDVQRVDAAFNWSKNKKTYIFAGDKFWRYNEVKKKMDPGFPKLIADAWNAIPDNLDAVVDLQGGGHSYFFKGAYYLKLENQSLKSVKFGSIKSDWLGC
Experimental: (§1) The inhibitory activity of the peptides was determined by measuring the MMPs' protease activity towards a FRET substrate. 0.8 nM MMP2 or MMP9 (Sigma-Aldrich), 10 μM substrate (FAM-Lys-Pro-Leu-Gly-Leu-Lys(Dabcyl)-Ala-Arg-NH2, λex 490 nm; λem 520 nm) and various concentrations of the peptides (0.0001 μM-10 μM or 0.001 μM-100 μM) were used. The reactions were performed in 50 mM Tris-HCl buffer (pH 7.5) containing 150 mM NaCl, 10 mM CaCl2, 0.05% Brij35, at 37° C. MMP2 was pre-incubated with the peptide inhibitors for 10 min before adding the substrate. All the numbers were input into GraphPad Prism (GraphPad Software, San Diego) for IC50 calculation.

MMP9 = target: T2, MMP9 (Homo sapiens, UniProt P14780); experiment: MMPs inhibition assay (FRET substrate), MMP9; assay type: biochemical
T2 construct: purchased Sigma-Aldrich
T2 sequence (P14780 94-707, species assumed): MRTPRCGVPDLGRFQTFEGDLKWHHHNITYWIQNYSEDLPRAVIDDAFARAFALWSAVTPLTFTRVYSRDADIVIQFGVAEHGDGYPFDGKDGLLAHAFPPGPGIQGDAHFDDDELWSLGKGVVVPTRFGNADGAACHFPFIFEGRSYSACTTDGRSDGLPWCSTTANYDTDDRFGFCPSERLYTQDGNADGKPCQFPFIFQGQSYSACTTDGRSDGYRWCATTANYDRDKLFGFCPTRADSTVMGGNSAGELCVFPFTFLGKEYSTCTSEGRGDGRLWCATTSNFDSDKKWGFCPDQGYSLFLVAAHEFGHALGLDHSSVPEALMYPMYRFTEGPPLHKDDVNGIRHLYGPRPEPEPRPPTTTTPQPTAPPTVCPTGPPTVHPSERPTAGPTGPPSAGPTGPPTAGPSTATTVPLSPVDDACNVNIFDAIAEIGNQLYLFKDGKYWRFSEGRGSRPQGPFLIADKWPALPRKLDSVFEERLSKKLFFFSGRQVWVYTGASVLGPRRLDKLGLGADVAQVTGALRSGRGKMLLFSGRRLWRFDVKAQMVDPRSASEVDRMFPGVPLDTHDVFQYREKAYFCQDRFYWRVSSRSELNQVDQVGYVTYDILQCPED
Experimental: as §1

## CC[C@H](C)[C@@H]1NC(=O)[C@@H]2CSSC[C@H](NC(=O)[C@H](CCCNC(=N)N)NC(=O)[C@@H]3CSSC[C@H](NC1=O)C(=O)N[C@@H]([C@@H](C)O)C(=O)N[C@@H](CCCNC(=N)N)C(=O)NCC(=O)N[C@@H](Cc1ccccc1)C(=O)N3)C(=O)N[C@@H](CC(C)C)C(=O)N[C@H]1CSSC[C@H](NC(=O)[C@H](C(C)C)NC(=O)CNC(=O)[C@H](CCCNC(=N)N)NC(=O)[C@H](CCCNC(=N)N)NC1=O)C(=O)N[C@@H](CCCNC(=N)N)C(=O)N2 [Peptide 16, reference compound] (cyclo(GFCRCLCRRGVCRCICTR); disulfide 3-16, 5-14, 7-12 (inferred); ring closure inferred)
MMP2
  Ki: 60 ± 10.4 nM
MMP9
  Ki: > 10 µM

— patent publication US12655458B2, “Methods for cyclization of (poly)peptides comprising nγ-hydroxy- or Nγ-amino-L-asparagine” (priority 2021, dated 2026)
